For orientation: IC50 means the midpoint of a concentration-inhibition curve.

This is an account of results in patent US12054498B2, “Heteroaromatic macrocyclic ether chemotherapeutic agents” (Nuvalent, Inc., priority 2020, dated 2024).

One assay addresses T1, Ba/F3 cells TPM3-TRKA (Homo sapiens, UniProt P04629).
T1 construct: host or cells: Ba/F3 (RIKEN), retroviral pMSCV-puro; the other entry of the earlier key: TPM3 (P06753, Tropomyosin alpha-3 chain)
As to the kind of experiment: Ba/F3 cell proliferation assay, TPM3-TRKA. It counts as cell-based. Particulars: 72 hours, CellTiter-Glo, read-out: TPM3-NTRK1-wt IC50. In outline:
(§1)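 Ba/F3 lines stably expressing the fusion (retroviral pMSCV-puro, selected by IL-3 withdrawal plus puromycin 0.8 μg/mL, monoclonal) were seeded at 1,000 cells/well, dosed next day with 3-fold compound dilutions, and incubated 72 hours. CellTiter-Glo luminescence gave percent inhibition; IC50 by four-parameter logistic fit.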
(In general: ATP-based viability assays read luminescence as a measure of living cells.)

The next assay addresses T2, ALK L1196M/G1202R (Homo sapiens, UniProt Q9UM73, G1202R/L1196M).
T2 construct: purchased SignalChem A19-12NG
Briefly: Biochemical kinase assay, ALK L1196M/G1202R kinase domain. To be noted: apparent inhibitory constant, Morrison equation; ATP 2 mM in substrate solution; read-out: ALK-L1196M-G1202R Ki^app. The protocol:
(§2) First, 250 nL of compound dissolved in DMSO (100-fold of the desired concentration) was dispensed into a 384-well plate. A 12.5 μL substrate solution containing ATP (2 mM) and fluorogenic phosphorylation substrate AQT0101 (26 μM for ALK and ROS1, AssayQuant) or AQT0104 (26 μM for TRKA, AssayQuant) in buffer (50 mM HEPES pH 7.5, 0.01% Brij-35, 0.5 mM EGTA, 10 mM MgCl2) was added and mixed thoroughly. Then, a 12.5 μL kinase solution containing ALK-wt (1.5 nM, Carna, 08-518), ALK ALK L1196M/G1202R (3 nM, SignalChem, A19-12NG), ROS1-wt (0.6 nM, Carna, 08-163), ROS1-G2032R (0.5 nM, SignalChem, R14-12BG), or TRKA-wt (1 nM, BPS Bio, 40280) kinase domains in buffer (50 nM HEPES pH 7.5, 0.01% Brij-35, 2% glycerol, 0.4 mg/mL BSA, 0.5 mM EGTA, and 10 mM MgCl2) was added and mixed thoroughly. The plate was sealed and read by SpectraMax Paradigm at λ=485 nm every 2 minutes for 120 minutes at 30° C. Initial rates of reaction (v) were calculated from the change in fluorescence intensity over time during the initial, linear portion of the reaction. Finally, apparent inhibitory constants (Ki^app) were determined from regression of v and I (inhibitor concentration) to Morrison Equation (E=enzyme concentration): […]

Assay [1] has as its target T3, Ba/F3 cells EML4-ALK L1196M/G1202R (variant 1) (Homo sapiens, UniProt Q9UM73, G1202R/L1196M).
T3 construct: echinoderm microtubule-associated protein-like 4 (EML4) gene and the ALK tyrosine kinase domain; host or cells: Ba/F3 (RIKEN), retroviral pMSCV-puro; the other entry of the earlier key: EML4 (Q9HC35, Echinoderm microtubule-associated protein-like 4)
Briefly: Ba/F3 cell proliferation assay, EML4-ALK L1196M/G1202R (variant 1). It counts as cell-based. Particulars: 72 hours, CellTiter-Glo. In outline:
as §1

In another assay the target is T4, TRKA-wt (Homo sapiens, UniProt P04629).
T4 construct: or TRKA-wt (1 nM, BPS Bio, 40280) kinase domains in buffer; purchased BPS Bio 40280
T4 sequence (P04629 510-781 limits assumed): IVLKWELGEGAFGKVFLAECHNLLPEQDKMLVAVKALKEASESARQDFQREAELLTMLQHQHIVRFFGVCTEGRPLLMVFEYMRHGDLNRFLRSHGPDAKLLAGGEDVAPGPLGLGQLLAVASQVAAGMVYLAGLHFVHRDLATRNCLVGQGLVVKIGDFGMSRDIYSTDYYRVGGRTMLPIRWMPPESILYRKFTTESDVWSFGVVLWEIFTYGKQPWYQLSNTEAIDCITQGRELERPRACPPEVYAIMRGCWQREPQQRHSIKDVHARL
Briefly: Biochemical kinase assay, TRKA-wt kinase domain. Particulars: apparent inhibitory constant, Morrison equation; ATP 2 mM in substrate solution; read-out: TRKA-wt Ki^app. The protocol: as §2

Another assay deals with T5, ROS1-G2032R (Homo sapiens, UniProt P08922, G2032R).
T5 construct: purchased SignalChem R14-12BG
T5 sequence (P08922 1945-2222 G2032R limits assumed): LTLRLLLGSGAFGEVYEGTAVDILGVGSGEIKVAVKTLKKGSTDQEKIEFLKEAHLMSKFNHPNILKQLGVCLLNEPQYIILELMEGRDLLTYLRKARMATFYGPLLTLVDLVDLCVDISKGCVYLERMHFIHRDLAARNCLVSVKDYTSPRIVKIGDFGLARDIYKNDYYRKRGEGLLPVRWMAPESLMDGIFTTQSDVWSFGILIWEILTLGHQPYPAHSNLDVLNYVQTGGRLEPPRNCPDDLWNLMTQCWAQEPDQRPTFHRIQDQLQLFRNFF
As to the kind of experiment: Biochemical kinase assay, ROS1-G2032R kinase domain. To be noted: apparent inhibitory constant, Morrison equation; ATP 2 mM in substrate solution; read-out: ROS1-G2032R Ki^app. The protocol:
as §2, with “Then, a 12.5 μL kinase solution containing ALK-wt (1.5 nM, Carna, 08-518), ALK ALK L1196M/G1202R (3 nM, SignalChem, A19-12NG), ROS1-wt (0.6 nM, Carna, 08-163), ROS1-G2032R (0.5 nM, SignalChem, R14-12BG), or TRKA-wt (1 nM, BPS Bio, 40280) kinase domains in buffer (50 nM HEPES pH 7.5, 0.01% Brij-35, 2% glycerol, 0.4 mg/mL BSA, 0.5 mM EGTA, and 10 mM MgCl2) was added and mixed thoroughly.” left out

The subject of assay [2] is TPM3-NTRK1-wt IC50 / primary target IC50 (e.g. CD74-ROS1-wt). Briefly: TRKA selectivity in Ba/F3 cells (TRKA potency divided by primary target potency). It is filed as cell-based. Particulars: for TPM3-NTRK1-wt/CD74-ROS1-G2032R selectivity ratio: TRKA potency / CD74-ROS1-G2032R potency; for TPM3-NTRK1-wt/CD74-ROS1-wt selectivity ratio: TRKA potency / CD74-ROS1-wt potency; for TPM3-NTRK1-wt/EML4-ALK-L1196M-G1202R selectivity ratio: TRKA potency / EML4-ALK-L1196M-G1202R potency; for TPM3-NTRK1-wt/EML4-ALK-wt selectivity ratio: TRKA potency / EML4-ALK-wt potency. The protocol:
TRKA selectivity was calculated by dividing a compound's TRKA potency by its primary target potency (e.g. TPM3-NTRK1-wt IC50/CD74-ROS1-wt IC50). Compound selectivity can be interpreted by binning ratio values: bin A for very high selectivity, ratio >30-fold; bin B for high selectivity, ratio >10-fold; bin C for moderate selectivity, ratio ≥1; and bin D for low selectivity, ratio <1. […] (nd=not determined).

Assay [3] has as its target T6, Ba/F3 cells EML4-ALK wt (variant 1) (Homo sapiens, UniProt Q9UM73).
T6 construct: echinoderm microtubule-associated protein-like 4 (EML4) gene and the ALK tyrosine kinase domain; host or cells: Ba/F3 (RIKEN), retroviral pMSCV-puro; the other entry of the earlier key: EML4 (Q9HC35, Echinoderm microtubule-associated protein-like 4)
As to the kind of experiment: Ba/F3 cell proliferation assay, EML4-ALK wt (variant 1). It counts as cell-based. To be noted: 72 hours, CellTiter-Glo. A digest of the protocol:
as §1

Assay [4] deals with T7, Ba/F3 cells CD74-ROS1 G2032R (Homo sapiens, UniProt P08922, G2032R).
T7 construct: fusion of the C-terminus of ROS1 with the N-terminus of various partner proteins; host or cells: Ba/F3 (RIKEN), retroviral pMSCV-puro; the other entry of the earlier key: CD74 (P04233, HLA class II histocompatibility antigen gamma chain)
T7 sequence (P08922 1883-2347 G2032R limits assumed): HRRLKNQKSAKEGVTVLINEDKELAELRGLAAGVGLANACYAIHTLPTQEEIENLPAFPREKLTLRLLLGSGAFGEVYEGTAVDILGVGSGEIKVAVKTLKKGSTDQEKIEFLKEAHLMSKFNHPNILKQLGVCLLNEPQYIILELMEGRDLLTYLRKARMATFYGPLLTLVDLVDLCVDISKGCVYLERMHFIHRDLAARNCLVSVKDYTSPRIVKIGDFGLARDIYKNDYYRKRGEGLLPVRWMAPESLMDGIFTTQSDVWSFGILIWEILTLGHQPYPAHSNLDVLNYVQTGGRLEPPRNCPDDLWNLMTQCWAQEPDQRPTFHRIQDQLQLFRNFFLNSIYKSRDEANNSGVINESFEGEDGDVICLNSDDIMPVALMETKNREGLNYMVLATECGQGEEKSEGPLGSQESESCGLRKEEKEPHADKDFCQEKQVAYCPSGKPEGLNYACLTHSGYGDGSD
Briefly: Ba/F3 cell proliferation assay, CD74-ROS1 G2032R. Particulars: 72 hours, CellTiter-Glo. It counts as cell-based. A digest of the protocol: (§3)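 IL-3-independent Ba/F3 CD74-ROS1 lines, puromycin-selected monoclones; 1,000 cells/well, plated 1 d before dosing; 3-fold serial dilutions, 72 h; CellTiter-Glo luminescence; IC50 by 4-parameter logistic regression.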

Assay [5] addresses T8, Ba/F3 cells CD74-ROS1 wild-type (wt) (Homo sapiens, UniProt P08922).
T8 construct: fusion of the C-terminus of ROS1 with the N-terminus of various partner proteins; host or cells: Ba/F3 (RIKEN), retroviral pMSCV-puro; the other entry of the earlier key: CD74 (P04233, HLA class II histocompatibility antigen gamma chain)
As to the kind of experiment: Ba/F3 cell proliferation assay, CD74-ROS1 wild-type. It counts as cell-based. To be noted: 72 hours, CellTiter-Glo. In outline: as §3

Another assay deals with T9, ALK-wt (Homo sapiens, UniProt Q9UM73).
T9 construct: purchased Carna 08-518
T9 sequence (Q9UM73 1116-1392 limits assumed): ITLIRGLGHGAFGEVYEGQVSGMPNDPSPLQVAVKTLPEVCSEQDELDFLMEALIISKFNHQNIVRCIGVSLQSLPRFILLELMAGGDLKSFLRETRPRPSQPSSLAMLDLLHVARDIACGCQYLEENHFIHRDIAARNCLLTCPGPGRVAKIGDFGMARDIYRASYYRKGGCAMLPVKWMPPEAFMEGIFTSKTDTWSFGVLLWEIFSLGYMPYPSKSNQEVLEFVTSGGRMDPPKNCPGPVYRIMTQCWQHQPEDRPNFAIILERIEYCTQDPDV
As to the kind of experiment: Biochemical kinase assay, ALK-wt kinase domain. To be noted: apparent inhibitory constant, Morrison equation; ATP 2 mM in substrate solution; read-out: ALK-wt Ki^app. The protocol: as §2

The target in another assay is T10, ROS1-wt (Homo sapiens, UniProt P08922).
T10 construct: purchased Carna 08-163
T10 sequence (P08922 1945-2222 limits assumed): as the sequence (P08922 1945-2222 G2032R limits assumed) above, with R88G counted along it
Briefly: Biochemical kinase assay, ROS1-wt kinase domain. Particulars: apparent inhibitory constant, Morrison equation; ATP 2 mM in substrate solution; read-out: ROS1-wt Ki^app. The protocol: as §2, with “Then, a 12.5 μL kinase solution containing ALK-wt (1.5 nM, Carna, 08-518), ALK ALK L1196M/G1202R (3 nM, SignalChem, A19-12NG), ROS1-wt (0.6 nM, Carna, 08-163), ROS1-G2032R (0.5 nM, SignalChem, R14-12BG), or TRKA-wt (1 nM, BPS Bio, 40280) kinase domains in buffer (50 nM HEPES pH 7.5, 0.01% Brij-35, 2% glycerol, 0.4 mg/mL BSA, 0.5 mM EGTA, and 10 mM MgCl2) was added and mixed thoroughly.” left out

T6 sequence (Q9UM73 with tags, fused parts or gaps): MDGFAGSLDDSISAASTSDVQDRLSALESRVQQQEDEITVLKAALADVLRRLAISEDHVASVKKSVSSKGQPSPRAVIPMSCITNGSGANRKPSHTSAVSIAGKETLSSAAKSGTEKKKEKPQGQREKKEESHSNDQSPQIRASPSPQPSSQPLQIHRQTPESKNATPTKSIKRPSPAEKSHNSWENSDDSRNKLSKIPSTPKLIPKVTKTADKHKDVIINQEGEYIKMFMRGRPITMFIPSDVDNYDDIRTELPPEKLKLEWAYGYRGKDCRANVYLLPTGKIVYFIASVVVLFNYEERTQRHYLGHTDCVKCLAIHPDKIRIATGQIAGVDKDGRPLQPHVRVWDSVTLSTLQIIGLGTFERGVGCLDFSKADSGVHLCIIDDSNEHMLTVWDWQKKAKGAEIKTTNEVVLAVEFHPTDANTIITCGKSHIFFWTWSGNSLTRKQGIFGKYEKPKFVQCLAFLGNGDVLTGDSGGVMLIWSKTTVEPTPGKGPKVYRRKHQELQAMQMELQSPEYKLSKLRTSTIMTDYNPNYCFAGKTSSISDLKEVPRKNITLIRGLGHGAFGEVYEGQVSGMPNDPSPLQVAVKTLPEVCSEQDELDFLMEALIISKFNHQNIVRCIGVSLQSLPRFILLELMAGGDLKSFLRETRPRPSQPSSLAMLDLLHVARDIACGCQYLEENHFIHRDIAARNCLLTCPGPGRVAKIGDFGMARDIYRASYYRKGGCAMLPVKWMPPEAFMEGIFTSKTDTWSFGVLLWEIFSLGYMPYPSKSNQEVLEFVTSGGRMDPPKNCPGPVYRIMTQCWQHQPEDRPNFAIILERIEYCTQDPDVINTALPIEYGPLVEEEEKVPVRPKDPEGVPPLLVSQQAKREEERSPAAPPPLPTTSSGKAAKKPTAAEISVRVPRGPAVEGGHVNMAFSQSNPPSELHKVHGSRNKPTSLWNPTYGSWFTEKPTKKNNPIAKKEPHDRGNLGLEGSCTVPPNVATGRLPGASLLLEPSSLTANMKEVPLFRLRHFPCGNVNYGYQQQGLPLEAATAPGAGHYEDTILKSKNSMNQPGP
T8 sequence (P08922 1883-2347 limits assumed): as the sequence (P08922 1883-2347 G2032R limits assumed) above, with R150G counted along it
T3 sequence (Q9UM73 with tags, fused parts or gaps L1196M/G1202R): as the sequence (Q9UM73 with tags, fused parts or gaps) above, with L635M, G641R counted along it
T2 sequence (Q9UM73 1116-1392 L1196M/G1202R limits assumed): as the sequence (Q9UM73 1116-1392 limits assumed) above, with L81M, G87R counted along it
T1 sequence (P04629 510-796 limits assumed): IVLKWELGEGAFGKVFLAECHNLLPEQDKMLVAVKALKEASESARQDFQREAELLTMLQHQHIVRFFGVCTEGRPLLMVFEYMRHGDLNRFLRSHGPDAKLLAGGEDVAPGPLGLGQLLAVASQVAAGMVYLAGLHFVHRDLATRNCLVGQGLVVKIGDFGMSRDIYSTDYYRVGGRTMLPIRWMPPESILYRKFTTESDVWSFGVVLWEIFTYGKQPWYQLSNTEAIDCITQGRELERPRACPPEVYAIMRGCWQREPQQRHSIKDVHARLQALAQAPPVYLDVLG

For the compound `C[C@H]1Oc2cc(cnc2N)-c2c(cnn2C2CCC2)Cn2ncc(C#N)c2-c2ccc(F)cc21` [Example 10, (19R)-22-amino-3-cyclobutyl-16-fluoro-19-methyl-20-oxa-3,4,8,9,23-pentaazapentacyclo[19.3.1.0^2,^6.0^8,^12.0^13,^18]pentacosa-1(24),2(6),4,9,11,13,15,1 7,21(25),22-decaene-11-carbonitrile], the IC50 on Ba/F3 cells TPM3-TRKA is above 500 nM; in [1] it was 50 to 500 nM; in assay [3] it was 0.1 to 50 nM; in assay [4] it was 0.1 to 50 nM; in [5], 0.1 to 50 nM. Besides, the Ki was below 50 nM at ALK L1196M/G1202R; above 500 nM on TRKA-wt; below 50 nM at ROS1-G2032R; below 50 nM on ALK-wt; below 50 nM on ROS1-wt. Further, the TPM3-NTRK1-wt/CD74-ROS1-G2032R selectivity ratio entry in assay [2] is listed as “A (bin A for very high selectivity, ratio >30-fold)”. For the same compound, in assay [2], the TPM3-NTRK1-wt/CD74-ROS1-wt selectivity ratio result is “A (bin A for very high selectivity, ratio >30-fold)”. Besides, in [2], the TPM3-NTRK1-wt/EML4-ALK-L1196M-G1202R selectivity ratio entry is recorded as “B (bin B for high selectivity, ratio >10-fold)”. Further, the TPM3-NTRK1-wt/EML4-ALK-wt selectivity ratio result in [2] is “A (bin A for very high selectivity, ratio >30-fold)”.

`C[C@H]1Oc2cc(cnc2N)-c2c(cnn2C(F)F)Cn2nccc2-c2ccc(F)cc21` [Example 12, (19R)-3-(difluoromethyl)-16-fluoro-19-methyl-20-oxa-3,4,8,9,23-pentaazapentacyclo[19.3.1.0^2,^6.0^8,^12.0^13,^18]pentacosa-1(24),2(6),4,9,11,13,15,17,21(25),22-decaen-22-amine]: the IC50 on Ba/F3 cells TPM3-TRKA is above 500 nM; in assay [1] it was above 500 nM; in assay [3], 50 to 500 nM; in [4], 0.1 to 50 nM; in assay [5], 0.1 to 50 nM. Also, the Ki at ALK L1196M/G1202R was 50 to 500 nM; at TRKA-wt, above 500 nM; at ROS1-G2032R, 50 to 500 nM; on ALK-wt, below 50 nM; on ROS1-wt it was below 50 nM. The TPM3-NTRK1-wt/CD74-ROS1-G2032R selectivity ratio entry in assay [2] was “A (bin A for very high selectivity, ratio >30-fold)”. In addition, in assay [2], the TPM3-NTRK1-wt/CD74-ROS1-wt selectivity ratio entry is listed as “A (bin A for very high selectivity, ratio >30-fold)”. The TPM3-NTRK1-wt/EML4-ALK-L1196M-G1202R selectivity ratio result in assay [2] was “C (bin C for moderate selectivity, ratio ≥1)”. Also, the TPM3-NTRK1-wt/EML4-ALK-wt selectivity ratio result in assay [2] is on record as “A (bin A for very high selectivity, ratio >30-fold)”.

For `C[C@H]1Oc2cc(cnc2N)-c2c(cnn2C2CCC2)Cc2nn(C)nc2-c2ccc(F)cc21` [Example 13, (19R)-3-cyclobutyl-16-fluoro-10,19-dimethyl-20-oxa-3,4,9,10,11,23-hexaazapentacyclo[19.3.1.0^2,^6.0^8,^12.0^13,^18]pentacosa-1(24),2(6),4,8,11,13,15,17,21(25),22-decaen-22-amine], the IC50 was above 500 nM on Ba/F3 cells TPM3-TRKA; 0.1 to 50 nM in assay [1]; 0.1 to 50 nM in [3]; 0.1 to 50 nM in [4]; 0.1 to 50 nM in assay [5]. In addition, the Ki on ALK L1196M/G1202R is below 50 nM; at TRKA-wt it was above 500 nM; at ROS1-G2032R, below 50 nM; on ALK-wt, below 50 nM; at ROS1-wt, below 50 nM. In assay [2], the TPM3-NTRK1-wt/CD74-ROS1-G2032R selectivity ratio result is on record as “A (bin A for very high selectivity, ratio >30-fold)”. For the same compound, in assay [2], the TPM3-NTRK1-wt/CD74-ROS1-wt selectivity ratio result was “A (bin A for very high selectivity, ratio >30-fold)”. In addition, the TPM3-NTRK1-wt/EML4-ALK-L1196M-G1202R selectivity ratio result in [2] is “A (bin A for very high selectivity, ratio >30-fold)”. Besides, in assay [2], the TPM3-NTRK1-wt/EML4-ALK-wt selectivity ratio entry is recorded as “A (bin A for very high selectivity, ratio >30-fold)”.
